Experiment [1] concerns haloperidol-induced catalepsy in mice. Briefly: Activity on haloperidol-induced Catalepsy. The format is in vivo, mouse (male ddY). The settings on record: 10 mg/kg oral; for Total score (catalepsy): 10 animals, maximum 50 points, control 50; for Number of Animals showing remission: catalepsy score 4 points or less in 10 cases; for Remission ratio (%): haloperidol-induced catalepsy. How it is done: Activity on haloperidol-induced Catalepsy
Parkinson's disease is a disease based on the degeneration and cell death of the nigrostriatal dopaminergic neuron. When haloperidol (dopamine D1/D2 antagonist) is administered, catalepsy is induced by the block of postsynaptic D2 receptor. This haloperidol-induced catalepsy is known as a classic model in which symptoms of Parkinson's disease are produced by drug administration [European Journal of Pharmacology, 182: 327 (1990) and U.S. Pat. No. 3,991,207].
This test was carried out using 10 animals per group of male ddY mice of 5 week age (22 to 24 g in body weight, Japan SLC). Haloperidol (manufacturedby Janssen) was suspended in 0.3% CMC and administered intraperitoneally into mice at a dose of 1.0 mg/kg. Each test compound was used by mixing it with Tween 80 and then suspending it in distilled water for injection (manufactured by Otsuka Pharmaceutical). Also, L-DOPA (manufactured by Kyowa Hakko Kogyo Co., Ltd.) and benserazide HCl (manufactured by Kyowa Hakko Kogyo Co., Ltd.) were used by suspending them in 0.3% CMC. […] All of the test compounds were administered orally in a dose of 10 mg/kg, and 100 mg/kg of L-DOPA and 25 mg/kg of benserazide were used in combination as a control drug and administered by intraperitoneal injection. The catalepsy score was evaluated by the judging criteria shown in the above-described Table 3.
The effect was judged by total catalepsy scores of 10 animals in one group (the maximum is 50 points). When the total score was 40 points or less, the activity of drugs was judged positive. The number of animals showing remission of catalepsy was expressed by the number of cases in which the catalepsy score was 4 points or less in 10 cases. The catalepsy remission ratio was expressed as the percentage of the total score in the test compound-administered group to the total score in the control group.

The test system of experiment [2] is clonidine-induced aggressive behavior in mice. Briefly: Activity on Clonidine-induced Aggressive Behavior. The settings on record: 10 mg/kg po; for Number of attacks (count; average ± S.E.M.), test compound group: *: p < 0.05, 10 animals. Format: in vivo, mouse (male ddY). Here is the method: Activity on Clonidine-induced Aggressive Behavior
Effect of test compounds to increase aggressive behavior induced by the intraperitoneal injection of clonidine [European Journal of Pharmacology, 29: 374 (1968)] was examined.
This test was carried out using 2 animals per group of male ddY mice of 20 to 25 g in body weight (Japan SLC). Each test compound was used by mixing it with Tween 80 and then suspending it in distilled water for injection (manufactured by Otsuka Pharmaceutical), and clonidine hydrochloride (manufactured by Sigma Co.) was used by dissolving it in physiological saline (manufactured by Otsuka Pharmaceutical). […] The number of aggressive behavior of each mouse was measured for 30 minutes immediately after the administration of clonidine. The effect was judged by comparing values of the number of aggressive behavior in the control and those in test compound-administered groups (significance test: Student t-test).

Experiment [3] has as its system CGS 21680-induced catalepsy in mice. Nature of the experiment: Activity on CGS 21680-induced Catalepsy. Format: in vivo, mouse (male ddY). The settings on record: 10 mg/kg oral; for Total score (catalepsy): 10 animals, maximum 50 points, control 48; for Number of Animals showing remission: catalepsy score 4 points or less in 10 cases; for inhibition in vivo at 10 mg/kg: Mus musculus, CGS 21680-induced catalepsy, read-out: Remission ratio (%). In outline: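 Male ddY mice (5 weeks, 10 per group) received CGS 21680 10 μg/20 μl intracerebroventricularly; test compounds given orally at 10 mg/kg in 0.3% Tween 80 suspension. Catalepsy scored 1 h after dosing on a 4.5 cm bar; total group score (maximum 50) compared with control; ≤4 per animal counted as remission.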

The next experiment has as its target T1, adenosine A2A receptor (Rattus norvegicus, UniProt P30543).
T1 construct: from tissue; host or cells: rat corpus striatum, washed membrane suspension
Nature of the experiment: Adenosine receptor binding activity (adenosine A2A receptor binding test), 3H-CGS 21680 binding. The settings on record: 2 h, read-out: A2A receptor inhibition ratio (%); for inhibition at 0.1 µM: 10^-7 M; for inhibition at 0.01 µM: 10^-8 M. In outline: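 Rat corpus striatum membranes (5 mg wet tissue/mL in 50 mM Tris-HCl pH 7.7, 10 mM MgCl2, adenosine deaminase) incubated with 4.0 nM 3H-CGS 21680 and test compound for 120 min at 25 °C, then filtered and counted. Nonspecific binding defined with 100 μM CPA; % inhibition of specific binding calculated.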

Experiment [4] concerns immobility time in forced swimming of mice. Briefly: Forced Swimming Method (measurement of immobility time). Format: in vivo, mouse (male ddY). As to conditions: 10 mg/kg oral, Steel-test vs solvent control. Here is the method: Forced Swimming Method (measurement of immobility time)
Ten animals per group of ddY male mice (21 to 26 g in body weight, Japan SLC) were used as the experimental animal. During the preliminary feeding period, they were allowed to have feed and water freely in an animal room of a room temperature of 23±1° C. and a humidity of 55±5%. […] The drugs to be tested were suspended in a 0.3% Tween 80 solution and orally administered one hour before the test. In the negative control group, 10 ml/kg of the 0.3% Tween 80 solution alone was orally administered. Measurement of immobility time was carried out in accordance with the method of Porsolt [Arch. int Pharmacodyn., 229: 327-336 (1977)]. That is, a cylindrical transparent acrylic water tank (10 cm in diameter and 25 cm in height) was filled with 9 cm in depth of water having a temperature of 23±1° C., and mice were forced to swim for 6 minutes. When mice are put into water, they immediately start to swim trying to escape from the tank, but the motion gradually decreases 1 to 2 minutes thereafter. […] In order to reduce effects of daily rhythm, the test was carried out by using 5 of the 10 animals per group in the morning, and the remaining 5 animals in the afternoon. Further, measurement of immobility time was carried out by observing 2 animals at the same time and by not telling the observers distinctions about the solvent-administered group and doses of administered test drugs. Statistical analysis of the results was carried out by a multiple comparison test of the solvent-administered control group and each of the test drug-administered groups by Steel-test.

Structures are written as SMILES. Counter-ions that a name gives are not always drawn.

T1 sequence (P30543 whole entry): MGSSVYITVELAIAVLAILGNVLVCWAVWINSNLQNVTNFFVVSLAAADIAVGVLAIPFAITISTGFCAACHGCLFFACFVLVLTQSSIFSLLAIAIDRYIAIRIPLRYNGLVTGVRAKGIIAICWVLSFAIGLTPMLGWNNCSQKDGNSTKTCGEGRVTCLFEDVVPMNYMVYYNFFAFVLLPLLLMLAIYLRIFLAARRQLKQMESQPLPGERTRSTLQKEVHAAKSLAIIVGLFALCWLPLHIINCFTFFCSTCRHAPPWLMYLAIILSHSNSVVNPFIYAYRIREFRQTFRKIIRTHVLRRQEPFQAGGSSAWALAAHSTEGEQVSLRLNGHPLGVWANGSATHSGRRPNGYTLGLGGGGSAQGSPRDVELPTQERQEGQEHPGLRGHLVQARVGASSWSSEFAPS

`COc1ccc(Oc2cc3nc(-c4ccco4)nn3c(N)n2)cc1OC` [Compound 31, 5-Amino-7-(3,4-dimethoxyphenoxy)-2-(2-furyl)[1,2,4]triazolo[1,5-c]pyrimidine]: in experiment [1], the “Total score (catalepsy)” value came to 15, the “Number of Animals showing remission” value amounted to 10 and the “Remission ratio (%)” value is on record as 70%. In experiment [2], the “Number of attacks in test compound group/number of attacks in control group” value stood at 9.1 and the “Number of attacks (count; average ± S.E.M.), test compound group” value amounted to 38.1 ± 13.06 count. Also, in experiment [3], the “Total score (catalepsy)” value was determined as 28, the “Number of Animals showing remission” value came to 9 and the inhibition in vivo at 10 mg/kg is 42%.

Consider `COc1cccc(OC)c1Oc1cc2nc(-c3ccco3)nn2c(N)n1` [Compound 32, 5-Anino-7-(2,6-dimethoxyphenoxy)-2-(2-furyl)[1,2,4]triazolo[1,5-c]pyrimidine], for which, in experiment [1], the “Total score (catalepsy)” value was found to be 37, the “Number of Animals showing remission” value is 5 and the “Remission ratio (%)” value stood at 26%. In addition, at adenosine A2A receptor, the inhibition at 0.1 µM was 89% and the inhibition at 0.01 µM came out at 71%. Also, in experiment [3], the “Total score (catalepsy)” value is listed as 21, the “Number of Animals showing remission” value is 9 and the inhibition in vivo at 10 mg/kg was determined as 54%.

Regarding `Nc1nc(N2CCOCC2)cc2nc(-c3ccco3)nn12` [Compound 39, 5-Amino-2-(2-furyl)-7-morpholino[1,2,4]triazolo[1.5-c]pyrimidine], in experiment [2], the “Number of attacks in test compound group/number of attacks in control group” value turned out to be 8.1 and the “Number of attacks (count; average ± S.E.M.), test compound group” value is given as 9.70 ± 3.42 count. In experiment [3], the “Total score (catalepsy)” value turned out to be 20, the “Number of Animals showing remission” value came out at 9 and the inhibition in vivo at 10 mg/kg came out at 56%.

As for `CN1CCN(c2cc3nc(-c4ccco4)nn3c(N)n2)CC1` [Compound 40, 5-Amino-2-(2-furyl)-7-(4-methylpiperazinyl)[1,2,4]triazolo[1,5-c]pyrimidine], in experiment [1], the “Total score (catalepsy)” value came out at 18, the “Number of Animals showing remission” value is 7 and the “Remission ratio (%)” value is 64%. In addition, on adenosine A2A receptor, the inhibition at 0.1 µM stood at 50% and the inhibition at 0.01 µM was determined as 11%. Besides, in experiment [2], the “Number of attacks in test compound group/number of attacks in control group” value stood at 7.6 and the “Number of attacks (count; average ± S.E.M.), test compound group” value stood at 22.00 ± 6.44 count. Moreover, in experiment [3], the “Total score (catalepsy)” value is 20, the “Number of Animals showing remission” value was 10 and the inhibition in vivo at 10 mg/kg was 56%.

In the case of `Nc1nc(N2CCN(Cc3ccccc3)CC2)cc2nc(-c3ccco3)nn12` [Compound 42, 5-Amino-7-(4-benzylpiperazinyl)2-(2-furyl)[1,2,4]triazolo[1,5-c]pyrimidine], in experiment [1], the “Total score (catalepsy)” value is given as 1, the “Number of Animals showing remission” value is recorded as 10 and the “Remission ratio (%)” value amounted to 98%. Also, at adenosine A2A receptor, the inhibition at 0.1 µM amounted to 82% and the inhibition at 0.01 µM was 43%. Further, in experiment [3], the “Total score (catalepsy)” value is 12, the “Number of Animals showing remission” value is reported as 9 and the inhibition in vivo at 10 mg/kg came out at 72%.

With `Nc1nc(N2CCN(CCc3ccccc3)CC2)cc2nc(-c3ccco3)nn12` [Compound 46, 5-Amino-2-(2-furyl)-7-[4-(2-phenylethyl)piperazinyl][1,2,4]triazolo[1,5-c]pyrimidine], in experiment [1], the “Total score (catalepsy)” value was determined as 13, the “Number of Animals showing remission” value is 10 and the “Remission ratio (%)” value is recorded as 74%. At adenosine A2A receptor, the inhibition at 0.1 µM was determined as 79% and the inhibition at 0.01 µM is 35%. Further, in experiment [3], the “Total score (catalepsy)” value came to 9, the “Number of Animals showing remission” value is on record as 10 and the inhibition in vivo at 10 mg/kg amounted to 78%.

On to `CCOC(=O)c1cnc(N)n2nc(-c3ccco3)nc12` [Compound 55, 5-Amino-8-ethoxycarbonyl-2-(2-furyl)[1,2,4]triazolo[1,5-c]pyrimidine], for which, in experiment [1], the “Total score (catalepsy)” value was determined as 35, the “Number of Animals showing remission” value came out at 5 and the “Remission ratio (%)” value was 30%. In experiment [3], the “Total score (catalepsy)” value was determined as 29, the “Number of Animals showing remission” value worked out at 9 and the inhibition in vivo at 10 mg/kg was 36%.

Regarding `Nc1nc(N2CCN(C/C=C/c3ccccc3)CC2)cc2nc(-c3ccco3)nn12` [Compound 88, 5-Amino-7-(4-trans-cinnamylpiperazinyl)-2-(2-furyl)[1,2,4]triazolo[1,5-c]pyrimidine], the inhibition at 0.1 µM on adenosine A2A receptor came out at 57%. The Immobility time-shortening activity result in experiment [4] is “Significant immobility time-shortening activity was observed”. Further, in experiment [3], the “Total score (catalepsy)” value is reported as 0, the “Number of Animals showing remission” value is on record as 10 and the inhibition in vivo at 10 mg/kg stood at 98%.

On to `Nc1nc(N2CCN(CC#Cc3ccccc3)CC2)cc2nc(-c3ccco3)nn12` [Compound 89, 5-Amino-2-(2-furyl)-7-(4-(3-phenylpropargyl)piperazinyl)[1,2,4]triazolo[1,5-c]pyrimidine hydrochloride], for which the inhibition at 0.1 µM on adenosine A2A receptor came to 52%. In experiment [4], the Immobility time-shortening activity result is listed as “Significant immobility time-shortening activity was observed”. In experiment [3], the “Total score (catalepsy)” value is listed as 15, the “Number of Animals showing remission” value is on record as 10 and the inhibition in vivo at 10 mg/kg was 68%.

`CC(C)NC(=O)c1cnc(N)n2nc(-c3ccco3)nc12` [Compound 165, 5-Amino-2-(2-furyl)-8-isopropylcarbamoyl[1,2,4]triazolo[1,5-c]pyrimidine]: at adenosine A2A receptor, the inhibition at 0.1 µM came to 103%. The Immobility time-shortening activity entry in experiment [4] is “Significant immobility time-shortening activity was observed”. Besides, in experiment [3], the “Total score (catalepsy)” value amounted to 13, the “Number of Animals showing remission” value is given as 9 and the inhibition in vivo at 10 mg/kg turned out to be 74%.

Regarding `CNC(=O)c1cnc(N)n2nc(-c3ccco3)nc12` [Compound 167, 5-Amino-2-(2-furyl)-8-methylcarbamoyl[1,2,4]triazolo[1,5-c]pyrimidine], the inhibition at 0.1 µM at adenosine A2A receptor amounted to 90%. In addition, the Immobility time-shortening activity result in experiment [4] was “Significant immobility time-shortening activity was observed”. In addition, in experiment [3], the “Total score (catalepsy)” value is on record as 9, the “Number of Animals showing remission” value came out at 10 and the inhibition in vivo at 10 mg/kg worked out at 82%.

The values above are taken from US6222035A, “[1,2,4] triazolo [1,5-C] pyrimidine derivatives” (Kyowa Hakko Kogyo Co., Ltd., priority 1997, dated 2001).
